Experimental findings from US20260265699A1, “STANDARDISING PLURIPOTENT STEM CELLS” (United Kingdom Research and Innovation, priority 2023, published 2026) are described below.

Entries after “also recorded” stand apart in the source; their conditions may differ.

What all share (assay type): cell-based, human
The test system of one assay is PS cells. Briefly: PSC basal (maintenance) culture. The settings on record: inhibition of SRC at basal culture, prolonged exposure. The text has this:
(§1) The so called “unguided protocol” relies on the natural propensity of PSCs to differentiate to neural fate and specifically forebrain when not exposed to any growth factors. The inventors cultured PSCs in Stemflex (Thermo) medium on plates coated with Matrigel growth factor reduced (Corning) and for generation of brain organoids they used STEMdiff Cerebral Organoid Kit (Stemcell Technologies). Despite these highly standardised conditions (FIG. 1A), the outcome of the protocol (i.e. the identity and quality of the tissues produced) can vary depending on the cell line that was used in the protocol or even between different batches of the same line (FIGS. 1 B and C). This makes producing good quality organoids from different lines difficult and unpredictable. To address this variability that plagues not only the neural organoid field but also others that rely on 2D and 3D differentiation to a variety of cell types, the inventors investigated the potential sources of this variability in PSCs and potential treatments to address this problem or, in other words, to standardise the performance of PSCs during differentiation.
There is a huge body of literature describing potential sources of PSC variability and a similar number of publications about ways to address this in a particular context, for example to increase efficiency of differentiation towards a certain tissue type. […]

Assay [1] has as its system PSC lines that did not readily differentiate into neural tissue. Briefly: Cerebral organoid differentiation, unguided protocol (STEMdiff Cerebral Organoid Kit), panel of bad differentiator lines. The settings on record: for Effect: organoid morphology: inhibition of Wnt at organoid stage, added at embedding stage. From the text: The so called “unguided protocol” relies on the natural propensity of PSCs to differentiate to neural fate and specifically forebrain when not exposed to any growth factors. The inventors cultured PSCs in Stemflex (Thermo) medium on plates coated with Matrigel growth factor reduced (Corning) and for generation of brain organoids they used STEMdiff Cerebral Organoid Kit (Stemcell Technologies). […] To address this variability that plagues not only the neural organoid field but also others that rely on 2D and 3D differentiation to a variety of cell types, the inventors investigated the potential sources of this variability in PSCs and potential treatments to address this problem or, in other words, to standardise the performance of PSCs during differentiation.
Because neural differentiation represents the default program upon pluripotency exit, the ability of a cell line to undergo such unguided differentiation is also a good indication of their pluripotent state. The other approach was to in depth characterise PSC lines that either produce good or bad organoids by proteomics and phosphoproteomics, analysis of already available bulk RNAseq data to learn about their transcriptome, and by ATACseq to learn about open chromatin patterns. […] Based on the combination of information gathered from both approaches, a number of treatments were chosen to test on the bad differentiators.

The next assay relates to sojd3 cells. Nature of the assay: Cerebral organoid differentiation, unguided protocol, sojd3 line. The settings on record: inhibition of Wnt in culture, Stemflex with 2-3 μM IWP2, long term (>8 passages). The text has this: (§2) The so called “unguided protocol” relies on the natural propensity of PSCs to differentiate to neural fate and specifically forebrain when not exposed to any growth factors. The inventors cultured PSCs in Stemflex (Thermo) medium on plates coated with Matrigel growth factor reduced (Corning) and for generation of brain organoids they used STEMdiff Cerebral Organoid Kit (Stemcell Technologies). Despite these highly standardised conditions (FIG. 1A), the outcome of the protocol (i.e. the identity and quality of the tissues produced) can vary depending on the cell line that was used in the protocol or even between different batches of the same line (FIGS. 1 B and C). This makes producing good quality organoids from different lines difficult and unpredictable. To address this variability that plagues not only the neural organoid field but also others that rely on 2D and 3D differentiation to a variety of cell types, the inventors investigated the potential sources of this variability in PSCs and potential treatments to address this problem or, in other words, to standardise the performance of PSCs during differentiation. […]
(§3) To establish such an approach, the inventors analysed the epigenetic state of human pluripotent stem cells and the role of epigenetics in development. […]

For the next assay, the system named is burb1 cells. Briefly: Cerebral organoid differentiation, unguided protocol, burb1 line.
Description: as §2, §3

The subject of assay [2] is kolf2 cells (organoid non-competent batch). Nature of the assay: Cerebral organoid differentiation, unguided protocol, bad batch of kolf2. The settings on record: generation of organoids with MEK inhibition.
Description: as §1
(§4) Because neural differentiation represents the default program upon pluripotency exit, the ability of a cell line to undergo such unguided differentiation is also a good indication of their pluripotent state. […]

For another assay, the system named is fiaj1 cells. Briefly: Cerebral organoid differentiation, unguided protocol, fiaj1 line. The settings on record: fiaj 1.
Description: as §1, §4

Take `COc1cccc(-c2cn(-c3ccc(CCN4CCC(O)CC4)cc3)c3ncnc(N)c23)c1` [CGP-77675]: the “Effect on PS cells in basal culture” value in the assay with PS cells is reported as “outcome, differentiation of PS”. Also, the “Effect: organoid differentiation outcome” value in assay [1] (inhibition of SRC at basal culture) is reported as “Worse organoid differentiation”.

On to `Cc1ccc2nc(NC(=O)CSc3nc4c(c(=O)n3-c3ccccc3)SCC4)sc2c1` [IWP2], for which the “Effect: organoid generation / brain organoid competency” value is recorded as “did not improve; also recorded: no improvement in sojd3” with sojd3 cells and “able to restore organoid competency; also recorded: acquired brain organoid competency; also recorded: improved organoid” in the assay on burb1 cells (inhibition of Wnt in culture, Stemflex with 2-3 μM IWP2, long term (>8 passages)). Moreover, in assay [1], the “Effect: organoid morphology” value is recorded as “embedding stage improve”.

For `O=C(NOC[C@H](O)CO)c1ccc(F)c(F)c1Nc1ccc(I)cc1F` [PD0325901], the “Effect: organoid differentiation” value in assay [2] is “Some improvement in bad”. In addition, the “Effect: improvement of organoid differentiation” value in the assay on fiaj1 cells (generation of organoids with MEK inhibition) is “batch of kolf2, no”.

Turning to `COc1ccc(N(C(=O)Oc2c(C)cccc2C)c2ccnc(Nc3ccc(N4CCN(C)CC4)cc3)n2)c(OC)c1` [WH-4-023], the “Effect: organoid differentiation outcome” value in assay [1] (inhibition of SRC at organoid generation, alone) is on record as “no improvement alone,”; in assay [1] (inhibition of SRC at organoid generation, used alongside with HRG), “improves outcome when used”.

Turning to recombinant human laminin 521 [L521], in the assay with burb1 cells (PSC culture on L521), the “Effect: organoid generation” value was “improved organoid generation”. Besides, in the assay with fiaj1 cells (culture on L521 micropatterns, areas of correct differentiation a small percentage of organoid volume), the “Effect: organoid differentiation” value is given as “worked to some extent in fiaj 1”.

B1: DKK-1: Wnt inhibition at organoid stage, added at Matrigel embedding (protein, UniProt O94907 32-266, looked up)
Dickkopf-related protein 1: TLNSVLNSNAIKNLPPPLGGAAGHPGSAVSAAPGILYPGGNKYQTIDNYQPYPCAEDEECGTDEYCASPTRGGDAGVQICLACRKRRKRCMRHAMCCPGNYCKNGICVSSDQNHFRGEIEETITESFGNDHSTLDGYSRRTTLSSKMYHTKGQEGSVCLRSSDCASGLCCARHFWSKICKPVLKEGQVCTKHRRKGSHGLEIFQRCYCGEGLSCRIQKDHHQASNSSRLHTCQRH
With B1, the “Effect: organoid morphology” value in assay [1] is reported as “embedding stage improve”.
